Test results taken from article PMC4654407 (Bioorganic & medicinal chemistry letters, 2015).
Values after ≈ are worked out from the molar mass of the structure shown.

Assays:
[1] = Solubility in sodium phosphate buffer; type: physicochemical; settings: pH 7.4
[2] = target: T1, recombinant purified human sEH (Homo sapiens, UniProt P34913); test: sEH inhibition, kinetic fluorescent assay with CMNPC substrate; type: biochemical
T1 sequence (P34913 1-555): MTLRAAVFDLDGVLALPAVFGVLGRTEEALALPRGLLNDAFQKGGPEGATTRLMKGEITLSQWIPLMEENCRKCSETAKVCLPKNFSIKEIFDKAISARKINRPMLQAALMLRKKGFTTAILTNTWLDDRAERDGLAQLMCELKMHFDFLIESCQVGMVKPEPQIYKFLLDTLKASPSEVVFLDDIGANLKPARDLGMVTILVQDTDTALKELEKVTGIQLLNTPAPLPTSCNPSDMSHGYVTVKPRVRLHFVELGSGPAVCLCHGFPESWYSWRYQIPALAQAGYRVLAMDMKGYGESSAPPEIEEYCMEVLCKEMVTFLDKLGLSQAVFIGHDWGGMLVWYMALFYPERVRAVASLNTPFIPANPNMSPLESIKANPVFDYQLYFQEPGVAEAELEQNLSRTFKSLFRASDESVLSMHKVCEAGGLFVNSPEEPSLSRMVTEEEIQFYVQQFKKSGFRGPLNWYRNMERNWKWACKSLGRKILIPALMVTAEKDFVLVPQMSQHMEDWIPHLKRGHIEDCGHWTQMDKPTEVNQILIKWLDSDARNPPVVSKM

Row | Compound | solubility [1] | IC50 [2] | fold less active than corresponding 1,3-disubstituted urea ([2]; relative to 3f) | fold less potent ([2]; relative to 3d)
1 | Cc1ccc(-c2cc(CNC(=O)NCC34CC5CC(CC(C5)C3)C4)no2)cc1 [3a] | 75 to 100 µM (≈ 28.5 to 38 µg/mL) |  |  | 
2 | COc1ccc(-c2cc(CNC(=O)NCC34CC5CC(CC(C5)C3)C4)no2)cc1 [3b] | 100 to 125 µM (≈ 39.6 to 49.4 µg/mL) |  |  | 
3 | O=C(NCc1cc(-c2ccco2)on1)NCC12CC3CC(CC(C3)C1)C2 [3c] | 75 to 100 µM (≈ 26.7 to 35.5 µg/mL) |  |  | 
4 | Cc1cc(CNC(=O)NCC23CC4CC(CC(C4)C2)C3)on1 [3d] | 450 to 475 µM (≈ 137 to 144 µg/mL) | 0.0099 ± 0.0029 µM |  | 
5 | CC(C)c1cc(CNC(=O)NCC23CC4CC(CC(C4)C2)C3)on1 [3f] | 125 to 150 µM (≈ 41.4 to 49.7 µg/mL) |  |  | 
6 | O=C(NCc1cc(-c2cccc(F)c2)no1)NCC12CC3CC(CC(C3)C1)C2 [3g] | 75 to 100 µM (≈ 28.8 to 38.3 µg/mL) | 0.0137 ± 0.003 µM |  | 
7 | CC(C)c1cc(C2CCCN2C(=O)NCC23CC4CC(CC(C4)C2)C3)no1 (centres unmarked) [3k] |  |  | > 5 fold | 
8 | Cc1ccc(-c2cc(CNC(=O)NC34CC5CC(C)(CC(C)(C5)C3)C4)no2)cc1 [4a] | 125 to 150 µM (≈ 49.2 to 59 µg/mL) | 0.0288 ± 0.0045 µM |  | 
9 | COc1ccc(-c2cc(CNC(=O)NC34CC5CC(C)(CC(C)(C5)C3)C4)no2)cc1 [4b] | 25 to 50 µM (≈ 10.2 to 20.5 µg/mL) | 0.018 ± 0.0029 µM |  | 
10 | CC12CC3CC(C)(C1)CC(NC(=O)NCc1cc(-c4ccco4)on1)(C3)C2 [4c] | 75 to 100 µM (≈ 27.7 to 36.9 µg/mL) | 0.0048 ± 0.0006 µM |  | 
11 | Cc1cc(CNC(=O)NC23CC4CC(C)(CC(C)(C4)C2)C3)on1 [4d] | 200 to 225 µM (≈ 63.5 to 71.4 µg/mL) | 0.111 ± 0.0103 µM |  | 10 fold
12 | CC12CC3CC(C)(C1)CC(NC(=O)NCc1cc(-c4cccc(F)c4)no1)(C3)C2 [4g] | 75 to 100 µM (≈ 29.8 to 39.7 µg/mL) | 0.0142 ± 0.0025 µM |  | 
